Laboratory results from paper PMC10397409, “The action of physiological and synthetic steroids on the calcium channel CatSper in human sperm” (Frontiers in Cell and Developmental Biology, 2023).
Like-named read-outs stand apart in the source and are kept apart here.

Assays:
CatSper [1] = target: T1, CatSper (Homo sapiens, UniProt Q7RTX7+Q86XQ3+Q8NEC5+Q96P56); test: Steroid-induced increase in [Ca2+]i in human sperm (Fluo-4 HTS assay, screen 1 activators); format: cell-based; conditions: for Emax: read-out: Max amplitude (%) (± SD)
T1 construct: Motile spermatozoa were selected by a ‘swim-up’ procedure; endogenous in cells; host or cells: motile human spermatozoa (swim-up) from healthy donors

CatSper [2] = target: T1, CatSper; test: Inhibition of PGE1-induced Ca2+ influx in human sperm (screen 2 inhibitors); format: cell-based
Procedure: Briefly, motile spermatozoa were selected by swim-up and labeled with the fluorescent calcium indicator Fluo-4 a.m. to image changes in [Ca^2+]i. After centrifugation to remove excess dye, Fluo-4 AM loaded cells were distributed in a 384-wells plate to obtain ∼125,000 cells/well. After measuring basal fluorescence, a first injection of compounds was performed in order to evaluate their effect on [Ca^2+]i alone. This first screen is therefore considered as a screen to search for ‘activators’. Fluorescence was recorded for 12 min during which sperm cells were continuously exposed to compounds. P4 or PGE1 were then added in the same wells to evaluate whether the tested compounds can reduce the ligand-induced activation of CatSper. This second screen was therefore considered to be a search for CatSper ‘inhibitors’.
Human semen samples were collected from healthy donors by masturbation after a recommended sexual abstinence period of minimum 2 days. Semen samples were allowed to liquefy at 37°C for 15–30 min. Motile spermatozoa were selected by a ‘swim-up’ procedure as previously described ([Strünker et al., 2011]). Briefly, 1 mL of semen was deposited in a 45°-inclined 50 mL Falcon tube with 4 mL of Human Tubular Fluid (HTF) medium containing: 93.8 mM NaCl, 4.7 mM KCl, 0.2 mM MgSO4, 0.37 mM KH2PO4, 2.04 mM CaCl2, 20.98 mM HEPES, 2.78 mM glucose, 21.4 mM Na-lactate, 4 mM NaHCO3, 0.33 mM Na-pyruvate, and the pH was adjusted to 7.35. Motile sperm were allowed to swim at 37°C for 1 hour. The supernatant was collected in 15 mL Falcon tubes and washed twice by centrifugation at 700 x g for 20 min. Sperm were supplemented with 3 mg/mL HSA. Written informed consent was obtained from all donors prior to donation and approved by the Cantonal Ethics Committee of the State of Geneva (CCER #14-147).
Cells were loaded with the fluorescent Ca^2+ indicator Fluo-4 AM at a final concentration of 2.5 µM for 30 min at 37°C. Excess dye was washed via centrifugation at 700 x g for 20 min and sperm were resuspended in HTF medium to obtain a final concentration of 6.25 x 10^6 cells/mL. 20 μL of cells (corresponding to ∼125,000 cells) loaded with Fluo-4 a.m. were dispensed in a 384-wells plate (Corning, NY, United States) to allow fluorescence measurement. The dye was excited at 480 nm, and emission was recorded at 530 nm. The change in [Ca^2+]i was assessed simultaneously in all wells using a Functional Drug Screening System (FDSS/μCELL) (Hamamatsu Phototonics K.K., Yokohama, Japan) at 37°C. Basal fluorescence was first measured for 30 s. […] P4 and PGE1 were tested at a near-saturating concentration in the HTS in order to evaluate a potential additive or synergistic effect induced by the compounds. Non-specific CatSper inhibitor MDL 12330A was used as a negative control at final concentration of 20 µM while DMSO was used as a vehicle control. For alkalization-induced Ca^2+ measurement, NH4Cl was used as a positive control at a final concentration of 10 mM. Fluorescence was recorded for a total of 16.5 min: 30 s before injection, 12 min after the first injection of the tested compounds, and 4 min after the second injection of either P4 or PGE1. The Prestwick library was tested in technical duplicate. Ca^2+ response curves were normalized using the following formula F−F0/F0×100 , where F 0 is the average of the basal fluorescence prior to the addition of the compound of interest and F corresponds to the fluorescence value at each time point. The ∆F/F0 of the vehicle control (DMSO) was subtracted from all the other values to adjust for dilution and pipetting artifacts. The values of all compounds were normalized to their respective controls.

CatSper [3] = target: T1, CatSper; test: Cross-desensitization: P4 dose-response after pre-incubation with steroid at 10 µM; format: cell-based; conditions: in the presence of predicted steroid at 10 µM, normalized to DMSO; P4 = control curve; n = 3; read-out: EC50 generated from concentration-response curves of P4-induced [Ca2+]i influx
[4] = ref Löfgren and Bäckström (1990), cited from earlier work
[5] = EC50 (±SD), increase in [Ca2+]i, dose-response 90 µM to 0.3 nM
[6] = Mean EC50 µM (±SD), pooled from 3 independent experiments
[7] = maximal amplitude of steroid-induced [Ca2+]i increase, relative to P4, 3 independent experiments

Compound | EC02 compared with reported maximum concentration in blood serum (CatSper [1]) | EC50 (CatSper [1]; [5]) | EC50 (CatSper [1]; [6]) | Emax (CatSper [1]) | effective concentrations as low as (dose-dependent increase in [Ca2+]i) (CatSper [1]) | Emax (CatSper [1]; [7]) | IC50 (CatSper [2]) | EC50 (CatSper [1]; increase in [Ca2+]i in human sperm, read-out: EC50) | EC50 (CatSper [1]; increase in [Ca2+]i, dose-response 90 µM to 0.3 nM, read-out: EC50 (±SD)) | EC50 (CatSper [1]; pooled from 3 independent experiments, read-out: Mean EC50 µM (±SD)) | EC50 (CatSper [3]) | Maximum serum level ([4]; female) | Maximum serum level ([4]; male) | increase in [Ca2+]i (CatSper [1]; at low concentrations in the nanomolar range)
C[C@]12CC[C@H](O)C[C@@H]1CC[C@@H]1[C@@H]2CC[C@]2(C)C(=O)CC[C@@H]12 [Epiandrosterone] | EC02 below the reported maximum concentration found in blood serum | 0.209 µM | 0.207 µM | 78% | – | – | – | – | – | – | – | – | – | –
CC(=O)[C@H]1CC[C@H]2[C@@H]3CC=C4C[C@@H](O)CC[C@]4(C)[C@H]3CC[C@]12C [Pregnenolone] | EC02 below the reported maximum concentration found in blood serum | 0.073 µM | 0.07 µM | – | 10 nM | 73% | 11 nM | – | – | – | – | – | – | –
CC(=O)[C@H]1CC[C@H]2[C@@H]3CCC4=CC(=O)CC[C@]4(C)[C@H]3CC[C@]12C [Progesterone] | – | – | – | – | – | 100% | – | 0.0025 µM | 0.003 µM | 0.002 µM | 5 nM | 60 nM (female) | 3 nM (male) | –
C[C@]12Cc3c[nH]nc3C[C@@H]1CC[C@@H]1[C@@H]2CC[C@@]2(C)[C@H]1CC[C@]2(C)O [Stanozolol] | – | 0.285 µM | 0.081 µM | 79% | – | – | 117 nM | – | – | – | – | – | – | 30%
